PubChem BioAssay AID493130 (Broad Institute, 2011)
Results filed as inconclusive are left out. Activity calls are given as the source filed them.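 How the source made its calls: active means signal-lowering compounds whose fitted half-maximal concentration is at most ten times their highest tested dose; inconclusive means flat fit between -30 and -70%, or poor fit; inactive means flat within 30%, signal rising, or potency beyond limit.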

What follows are compounds tested against POS-1 (Caenorhabditis elegans) binding to mex-3 RNA (assay: C. elegans POS-1 RNA interaction disruptors – biochemical, fluorescence polarization, cherry-picked samples, set 2, counter-screen for MEX-5 RNA-binding inhibitor project, dose response (AID 493130;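 further: POS-1 as maltose binding protein fusion made in E. coli with FITC RNA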)). Conditions: POS-1/mex-3 RNA fluorescence polarization, 1 h.
Work on O=C1CCNc2ccc(-c3ccccc3)cc21 yielded an AC50 of 1.34 µM.
C=CCn1c(=O)[nH]c2nc3cc(N=CN(C)C)c(C)cc3nc2c1=O showed an AC50 of 7.27 µM.
Compound CN(C)c1ccc2nc3c(=O)[nH]c(=O)nc-3n(CC(O)C(O)C(O)CO)c2c1 (stereo not given) has an AC50 of 9.63 µM.
With O=C1c2ccccc2C(=O)N1/N=C/c1ccc(O)c(O)c1O the AC50 was 2.31 µM.
O=[N+]([O-])c1cc(/C=N\Nc2nccs2)ccc1O showed an AC50 of 2.55 µM.
Compound Cc1ccc(NC(=O)/C(C#N)=C(\N)C(Cl)(Cl)Cl)nc1 has an AC50 of 6.68 µM.
COc1ccc(N=Nc2nc3ccc(Br)cc3n2C)cc1 gave an AC50 of 2.16 µM.
In the case of O=[N+]([O-])c1ccccc1NC(=S)N/N=C/c1ccc(O)c(O)c1, the AC50 is reported as 5.42 µM.

Same assay, conditions: POS-1/mex-3 RNA fluorescence polarization, 1 h; at 10 µM (top of the series)
Cc1nnc(-c2cccc(Br)c2)c2cn(-c3cccc(Br)c3)nc12 was tested, and the “activity change, negative = inhibition” value was “inactive”.
For COc1ccc(OC)c(/C=C/C(=O)Nc2ccc(OC)nc2)c1, the “activity change, negative = inhibition” value was “inactive”.
In the case of CC(=Nc1ccc(C)cc1)c1sc2ccccc2c1O, the “activity change, negative = inhibition” value is reported as “inactive”.
In the case of O=c1c2ccccc2nc(/C=C/c2ccc([N+](=O)[O-])cc2)n1CCCO, the “activity change, negative = inhibition” value is reported as “inactive”.
For COC(=O)c1ccc(CC(=O)c2ccc(O)cc2O)o1, the “activity change, negative = inhibition” value was “inactive”.
For CCCNc1nc2ccccc2n2c(C)nnc12, the “activity change, negative = inhibition” value was “inactive”.
In the case of O=C1/C(=C\c2ccc(Br)cc2)SC(=S)N1NS(=O)(=O)c1ccccc1, the “activity change, negative = inhibition” value is reported as “inactive”.
For O=C1OC2(CCCC2)OC(=O)C1=Cc1c[nH]c2ccccc12, the “activity change, negative = inhibition” value was “inactive”.
In the case of Nc1ccc(S(=O)(=O)NNC(=O)C(=O)NNc2ccccn2)cc1, the “activity change, negative = inhibition” value is reported as “inactive”.
COc1ccc(/C=C2\SC(=S)N(CCCC(=O)Nc3ccccn3)C2=O)cc1OC was tested, and the “activity change, negative = inhibition” value was “inactive”.
In the case of CC[N+](C)(CC)CCCOC(=O)C(O)(c1ccccc1)C1CCCCC1 (stereo not given), the “activity change, negative = inhibition” value is reported as “inactive”.
For COc1ccccc1N1C(=O)C2C(C(=O)c3ccccc3)=NN(c3ccccc3OC)C2C1=O (stereo not given), the “activity change, negative = inhibition” value was “inactive”.
In the case of CCOC(=O)c1c(-c2ccccc2)oc2ccc(OCC(=O)NNC(=O)CCC(=O)O)cc12, the “activity change, negative = inhibition” value is reported as “inactive”.
In the case of CCOC(=O)C(=NC(C)C)NNc1cc(Cl)ccc1Cl, the “activity change, negative = inhibition” value is reported as “inactive”.
CN1C(=O)N(C)C(c2cccc([N+](=O)[O-])c2)C2=C1CCCC2=O (stereo not given) was tested, and the “activity change, negative = inhibition” value was “inactive”.
O=C(N/N=C/c1oc(O)c2ccccc12)c1ccccc1O was tested, and the “activity change, negative = inhibition” value was “inactive”.
In the case of Nc1ccc2nc[nH]c2c1, the “activity change, negative = inhibition” value is reported as “inactive”.
In the case of CCCC(=O)Nc1ccc(NC(=O)c2cccs2)cn1, the “activity change, negative = inhibition” value is reported as “inactive”.
In the case of Cc1cc(-c2nnc(SCC(=O)Nc3nccs3)o2)no1, the “activity change, negative = inhibition” value is reported as “inactive”.
In the case of Cc1cc(C)c[n+](-c2[nH]c(=O)sc2/C=N/N=C(\N)[S-])c1, the “activity change, negative = inhibition” value is reported as “inactive”.
For COC(=O)CCC(=O)NC(=S)Nc1sc(C)c(C)c1C(N)=O, the “activity change, negative = inhibition” value was “inactive”.
With COc1cc(/C=C2/C(C)=C(C#N)c3nc(N)c(C#N)c(C)c32)ccc1OCC(=O)O the “activity change, negative = inhibition” value was “inactive”.
In the case of CN(C)c1ncnc2c1NC1=C(S2)C(=NCCCC(=O)O)CC(C)(C)C1, the “activity change, negative = inhibition” value is reported as “inactive”.
For Cn1cc(CNC(=O)C2c3ccccc3Oc3ccccc32)cn1, the “activity change, negative = inhibition” value was “inactive”.
In the case of Cc1cccn2c(=O)c3cc(C(=O)NCCCn4ccnc4)n(C)c3nc12, the “activity change, negative = inhibition” value is reported as “inactive”.
In the case of CCOC(=O)c1sc2nc(C)[nH]c(=S)c2c1C, the “activity change, negative = inhibition” value is reported as “inactive”.
For O=C(Nc1cccnc1)c1cccs1, the “activity change, negative = inhibition” value was “inactive”.
For NC(=S)N=Nc1c(O)[nH]c2cc(F)c(F)cc12, the “activity change, negative = inhibition” value was “inactive”.
COc1cccc(NC(=S)NNC(=O)C(C)n2nc(C)c([N+](=O)[O-])c2C)c1 (stereo not given) was tested, and the “activity change, negative = inhibition” value was “inactive”.
For COc1cc(/C=C2/C(=O)NN(c3ccc(Cl)c(Cl)c3)C2=O)cc([N+](=O)[O-])c1O, the “activity change, negative = inhibition” value was “inactive”.
Nc1cc(C(=O)O)c(Oc2ccc(Cl)cc2Cl)cc1C(=O)O was tested, and the “activity change, negative = inhibition” value was “inactive”.
With CC1(OC(=O)c2ccc(Cl)nc2)C(=O)C=C2C=C(c3ccc(C#N)cc3)OC=C2C1=O (stereo not given) the “activity change, negative = inhibition” value was “inactive”.
For CCOC(=O)C1CCN(c2nc3ccccc3nc2C(C#N)C(=O)OC(C)C)CC1 (stereo not given), the “activity change, negative = inhibition” value was “inactive”.
In the case of COc1c(OC2OC(C(=O)O)C(O)C(O)C2O)cc(O)c2c(=O)cc(-c3ccccc3)oc12 (stereo not given), the “activity change, negative = inhibition” value is reported as “inactive”.
With CC(=Nc1ccc(C)cc1C)c1sc2ccccc2c1O the “activity change, negative = inhibition” value was “inactive”.
COc1ccc(-n2c(C)nc3cc(C(=O)O)ccc32)cc1 was tested, and the “activity change, negative = inhibition” value was “inactive”.
With O=C(Nc1cccc2ncccc12)c1ccccc1[N+](=O)[O-] the “activity change, negative = inhibition” value was “inactive”.
In the case of Cc1ccc2oc(=O)c(/C=C(\O)c3ccco3)nc2c1, the “activity change, negative = inhibition” value is reported as “inactive”.
For Nc1nc(N)c2[nH]cnc2n1, the “activity change, negative = inhibition” value was “inactive”.
For Nc1ccc(Oc2ncccn2)cc1, the “activity change, negative = inhibition” value was “inactive”.
For Cc1cc(C(=O)N/N=C/c2ccc(-c3ccc([N+](=O)[O-])cc3C)o2)n[nH]1, the “activity change, negative = inhibition” value was “inactive”.
CC(=O)NN1C(=O)/C(=C2/Sc3ccccc3N2C)SC1=S was tested, and the “activity change, negative = inhibition” value was “inactive”.
For CS(=O)(=O)Nc1ccc(-c2ccc(/C=C3\SC(N)=NC3=O)o2)cc1, the “activity change, negative = inhibition” value was “inactive”.
With Cc1ccc(C(=O)N/C(=C\c2ccc(-c3ccc(Cl)cc3)o2)C(=O)NCCCN(C)C)cc1 the “activity change, negative = inhibition” value was “inactive”.
For CCOC(=O)c1c(=O)n(O)c2ccc(OC)cc2[n+]1[O-], the “activity change, negative = inhibition” value was “inactive”.
For COc1ccc(CCn2c(=N)c(C(=O)NCC3CCCO3)cc3c(=O)n4ccccc4nc32)cc1 (stereo not given), the “activity change, negative = inhibition” value was “inactive”.
With Cc1ccccc1S(=O)(=O)NNC(=O)C(=O)NNc1ccccn1 the “activity change, negative = inhibition” value was “inactive”.
In the case of CNC(=O)/C(C#N)=C/c1ccc(-c2ccc(Cl)cc2)o1, the “activity change, negative = inhibition” value is reported as “inactive”.
With COC(=O)c1cc2c(-c3ccccc3)cc3ccccn3c-2c1C(=O)OC the “activity change, negative = inhibition” value was “inactive”.
For O=C(O)c1c2c(nc3ccccc13)/C(=C/c1ccc(O)cc1)CC2, the “activity change, negative = inhibition” value was “inactive”.
In the case of CCCCn1c(O)c(N=Nc2ccccn2)c2ccccc21, the “activity change, negative = inhibition” value is reported as “inactive”.
For COc1cccc(-c2cn3nc4c(nc3n2)CCCC4)c1, the “activity change, negative = inhibition” value was “inactive”.
For O=C1NC(=O)/C(=C/c2ccc(N3CCOCC3)o2)N1, the “activity change, negative = inhibition” value was “inactive”.
Cc1nnc(SCc2nc3sc4c(c3c(=O)[nH]2)CCCC4)n(N)c1=O was tested, and the “activity change, negative = inhibition” value was “inactive”.
For Cc1nn(C)cc1C(=O)NNC(=S)Nc1ccccc1, the “activity change, negative = inhibition” value was “inactive”.
O=[N+]([O-])c1cc([N+](=O)[O-])c2cccnc2c1Oc1ccccc1O was tested, and the “activity change, negative = inhibition” value was “inactive”.
For N=C1C(c2nc3ccccc3[nH]2)=C(O)CN1c1ccc(F)cc1, the “activity change, negative = inhibition” value was “inactive”.
With CCOC(=O)c1cc(-c2ccccc2)sc1NC(=S)Nc1cccc(C)n1 the “activity change, negative = inhibition” value was “inactive”.
With O=C(Cc1cccs1)Nc1nnc(SCc2ccc(Br)cc2)s1 the “activity change, negative = inhibition” value was “inactive”.
CCOc1ccc(/C=C2/C(=O)N(c3ccc(OC)cc3)C(=S)N2CC(=O)OC)cc1OCC was tested, and the “activity change, negative = inhibition” value was “inactive”.
With CC(=O)c1cc(NC(=O)c2ccc(C)cc2)c(=O)oc1C the “activity change, negative = inhibition” value was “inactive”.
CCN=c1scc(-c2ccco2)n1/N=C/c1ccc(O)cc1 was tested, and the “activity change, negative = inhibition” value was “inactive”.
